Key:
ABUTH [1] = test: Pre-emergence herbicidal action against ABUTH; assay type: in vivo, Abutilon theophrasti
Outline: (§1)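 Visual rating at 3 weeks vs untreated pots; 0–100% scale, 100% = plants died. Treatment: aqueous WP/EC spray onto covering soil, 600–800 l/ha, 0.2% wetter, seeds in sandy loam.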

AMARE [2] = test: Post-emergence herbicidal action against AMARE; assay type: in vivo, Amaranthus retroflexus; settings: 20 g/ha, visual assessment about 3 weeks after treatment, 100% = plants have died, 0% = like control plants; for pest or weed control at 20 g/ha: Amaranthus retroflexus, 504 h
Outline: (§2)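 Weeds in sandy loam soil received a post-emergence spray at the one-leaf stage. Compounds were applied as WP or EC in water, 600 to 800 l/ha, with 0.2% wetting agent. Activity in % was judged visually after roughly 3 weeks against untreated plants.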

ABUTH [3] = test: Post-emergence herbicidal action against ABUTH; assay type: in vivo, Abutilon theophrasti; settings: visual assessment about 3 weeks after treatment vs untreated controls
Outline: as §2

AMARE [4] = test: Pre-emergence herbicidal action against AMARE; assay type: in vivo, Amaranthus retroflexus; settings: for pest or weed control at 20 g/ha / pest or weed control at 80 g/ha: Amaranthus retroflexus, 504 h
Outline: as §1

ALOMY [5] = test: Pre-emergence herbicidal action against ALOMY; assay type: in vivo, Alopecurus myosuroides; settings: pre-emergence; for pest or weed control at 80 g/ha / pest or weed control at 20 g/ha: Alopecurus myosuroides, 504 h; for pest or weed control at 20 g/ha: scored visually after 3 weeks, 100% = plants have died, 0% = like control plants
Outline: as §1

VERPE [6] = test: Post-emergence herbicidal action against VERPE; assay type: in vivo, Veronica persica; settings: 20 g/ha; for pest or weed control at 20 g/ha: Veronica persica, 504 h
Method: (§3) Seeds of monocotyledonous and dicotyledonous weed and crop plants are laid out in sandy loam soil in wood-fiber pots, covered with soil and cultivated in a greenhouse under good growth conditions. 2 to 3 weeks after sowing, the test plants are treated at the one-leaf stage. The compounds of the invention, formulated in the form of wettable powders (WP) or as emulsion concentrates (EC), are then sprayed onto the green parts of the plants in the form of an aqueous suspension or emulsion at a water application rate equivalent to 600 to 800 l/ha, with addition of 0.2% wetting agent. After the test plants have been left to stand in the greenhouse under optimal growth conditions for about 3 weeks, the action of the preparations is assessed visually in comparison to untreated controls (herbicidal action in percent (%): 100% activity=the plants have died, 0% activity=like control plants). […] The tables below illustrate, in an illustrative manner, the post-emergence herbicidal action of the compounds of the invention, the herbicidal activity being stated in percent.

VIOTR [7] = test: Pre-emergence herbicidal action against VIOTR; assay type: in vivo, Viola tricolor
Outline: as §1

MATIN [8] = test: Pre-emergence herbicidal action against MATIN; assay type: in vivo, Matricaria inodora; settings: for pest or weed control at 20 g/ha / pest or weed control at 80 g/ha: Tripleurospermum inodorum, 504 h
Outline: as §1

ECHCG [9] = test: Post-emergence herbicidal action against ECHCG; assay type: in vivo, Echinochloa crus-galli; settings: dosage 20 g/ha
Outline: as §2

SETVI [10] = test: Post-emergence herbicidal action against SETVI; assay type: in vivo, Setaria viridis; settings: for pest or weed control at 5 g/ha / pest or weed control at 20 g/ha: Setaria viridis, 504 h; for pest or weed control at 5 g/ha: dosage 5 g/ha
Outline: as §2

VIOTR [11] = test: Post-emergence herbicidal action against VIOTR; assay type: in vivo, Viola tricolor; settings: for pest or weed control at 20 g/ha: Viola tricolor, 504 h
Outline: as §2

ALOMY [12] = test: Post-emergence herbicidal action against ALOMY; assay type: in vivo, Alopecurus myosuroides; settings: visual assessment about 3 weeks after treatment vs untreated controls
Method: as §3

SETVI [13] = test: Pre-emergence herbicidal action against SETVI; assay type: in vivo, Setaria viridis; settings: dosage 80 g/ha
Outline: as §1

PHBPU = test: Post-emergence herbicidal action against PHBPU; assay type: in vivo, Pharbitis purpurea
Outline: as §2

ECHCG [14] = test: Pre-emergence herbicidal action against ECHCG; assay type: in vivo, Echinochloa crus-galli; settings: 80 g/ha; for pest or weed control at 80 g/ha: Echinochloa crus-galli, 504 h
Outline: as §1

VERPE [15] = test: Pre-emergence herbicidal action against VERPE; assay type: in vivo, Veronica persica; settings: dosage 80 g/ha
Outline: as §1

MATIN [16] = test: Post-emergence herbicidal action against MATIN; assay type: in vivo, Matricaria inodora; settings: dosage 20 g/ha
Method: as §3

DIGSA [17] = test: Post-emergence herbicidal action against DIGSA; assay type: in vivo, Digitaria sanguinalis; settings: Digitaria sanguinalis, 504 h
Outline: as §2

AVEFA = test: Pre-emergence herbicidal action against AVEFA; assay type: in vivo, Avena fatua; settings: Avena fatua, 504 h; 80 g/ha, pre-emergence
Outline: as §1

DIGSA [18] = test: Pre-emergence herbicidal action against DIGSA; assay type: in vivo, Digitaria sanguinalis; settings: Digitaria sanguinalis, 504 h
Outline: as §1

[19] = 80 g/ha, scored visually after 3 weeks vs untreated controls (100% = plants have died, 0% = like control plants)
[20] = 20 g/ha, scored visually after 3 weeks vs untreated controls, 100% = plants have died, 0% = like control plants
[21] = 80 g/ha, scored visually after 3 weeks vs untreated controls, 100% = plants have died, 0% = like control plants
[22] = Alopecurus myosuroides, 504 h, dosage 20 g/ha
[23] = Ipomoea purpurea, 504 h, dosage 20 g/ha

CSc1c(C(=O)Nc2nnnn2C)ccc(C(F)F)c1C(=O)NCC1CC1 [Example 1-90]
Pre-emergence action against ABUTH (herbicidal activity) (ABUTH [1]; [19]): 100% | Pre-emergence action against ABUTH (herbicidal activity in percent) (ABUTH [1]; dosage 20 g/ha, scored visually after 3 weeks vs untreated controls, 100% = plants have died, 0% = like control plants): 100% | Post-emergence action at 20 g/ha against AMARE in % (AMARE [2]): 100% | Post-emergence action against ABUTH in % (ABUTH [3]; dosage 5 g/ha): 80% | Post-emergence action against ABUTH in % (ABUTH [3]; dosage 20 g/ha): 90% | Pre-emergence action against AMARE in % (AMARE [4]; [20]): 100% | Pre-emergence action against AMARE in % (AMARE [4]; [19]): 100% | Pre-emergence action against ALOMY (herbicidal activity) (ALOMY [5]; [19]): 80% | Post-emergence action against VERPE in % (VERPE [6]): 90% | Pre-emergence action against VIOTR in % (VIOTR [7]; dosage 20 g/ha): 90% | Pre-emergence action against VIOTR in % (VIOTR [7]; dosage 80 g/ha): 100% | Pre-emergence action against MATIN in % (MATIN [8]; dosage 20 g/ha): 100% | Pre-emergence action against MATIN in % (MATIN [8]; dosage 80 g/ha): 100% | Post-emergence action against ECHCG in % (ECHCG [9]): 100% | Post-emergence action against SETVI in % (SETVI [10]; dosage 20 g/ha): 90% | Post-emergence action against VIOTR in % (VIOTR [11]; 5 g/ha): 80% | Post-emergence action against VIOTR in % (VIOTR [11]; 20 g/ha): 100% | Post-emergence action against ALOMY in % (ALOMY [12]; dosage 20 g/ha): 80% | Pre-emergence action against SETVI in % (SETVI [13]): 100% | Post-emergence action against PHBPU in % (PHBPU; dosage 20 g/ha): 90% | Pre-emergence action against ECHCG in % (ECHCG [14]): 100% | Pre-emergence action against VERPE in % (VERPE [15]): 90% | Post-emergence action against MATIN in % (MATIN [16]): 80%

Cn1nnnc1NC(=O)c1ccc(C(F)(F)F)c(C(=O)NCC(F)(F)F)c1Cl [Example 1-133]
pest or weed control at 80 g/ha (ABUTH [1]; Abutilon theophrasti, 504 h, 80 g/ha, scored visually after 3 weeks vs untreated controls (100% = plants have died, 0% = like control plants)): 100% | pest or weed control at 20 g/ha (AMARE [2]): 100% | pest or weed control at 5 g/ha (DIGSA [17]; 5 g/ha): 90% | pest or weed control at 20 g/ha (DIGSA [17]; 20 g/ha): 90% | pest or weed control at 20 g/ha (AMARE [4]; [20]): 90% | pest or weed control at 80 g/ha (AMARE [4]; [21]): 100% | pest or weed control at 80 g/ha (AVEFA): 100% | pest or weed control at 80 g/ha (ALOMY [5]; [19]): 90% | pest or weed control at 20 g/ha (ALOMY [5]): 90% | pest or weed control at 20 g/ha (VERPE [6]): 90% | pest or weed control at 20 g/ha (VIOTR [7]; Viola tricolor, 504 h, dosage 20 g/ha): 100% | pest or weed control at 80 g/ha (VIOTR [7]; Viola tricolor, 504 h, dosage 80 g/ha): 100% | pest or weed control at 20 g/ha (MATIN [8]; dosage 20 g/ha): 90% | pest or weed control at 80 g/ha (MATIN [8]; dosage 80 g/ha): 100% | pest or weed control at 5 g/ha (SETVI [10]): 90% | pest or weed control at 20 g/ha (SETVI [10]; dosage 20 g/ha): 100% | pest or weed control at 20 g/ha (VIOTR [11]; 20 g/ha): 80% | pest or weed control at 20 g/ha (ALOMY [12]; [22]): 90% | pest or weed control at 80 g/ha (SETVI [13]; Setaria viridis, 504 h): 100% | pest or weed control at 20 g/ha (PHBPU; [23]): 80% | pest or weed control at 80 g/ha (ECHCG [14]): 100% | pest or weed control at 20 g/ha (DIGSA [18]; dosage 20 g/ha): 90% | pest or weed control at 80 g/ha (DIGSA [18]; dosage 80 g/ha): 100%

CNC(=O)c1c(Br)ccc(C(=O)Nc2nnnn2C)c1Br [Example 1-342]
pest or weed control at 20 g/ha (AMARE [2]): 100% | pest or weed control at 5 g/ha (ABUTH [3]; Abutilon theophrasti, 504 h, dosage 5 g/ha): 90% | pest or weed control at 20 g/ha (ABUTH [3]; Abutilon theophrasti, 504 h, dosage 20 g/ha): 90% | pest or weed control at 20 g/ha (AMARE [4]; [20]): 100% | pest or weed control at 80 g/ha (AMARE [4]; [21]): 100% | pest or weed control at 80 g/ha (AVEFA): 100% | pest or weed control at 80 g/ha (ALOMY [5]; [19]): 100% | pest or weed control at 20 g/ha (ALOMY [5]): 90% | pest or weed control at 20 g/ha (VERPE [6]): 80% | pest or weed control at 20 g/ha (MATIN [8]; dosage 20 g/ha): 80% | pest or weed control at 80 g/ha (MATIN [8]; dosage 80 g/ha): 100% | pest or weed control at 20 g/ha (ECHCG [9]; Echinochloa crus-galli, 504 h): 80% | pest or weed control at 5 g/ha (SETVI [10]): 90% | pest or weed control at 20 g/ha (SETVI [10]; dosage 20 g/ha): 90% | pest or weed control at 20 g/ha (VIOTR [11]; 20 g/ha): 80% | pest or weed control at 5 g/ha (ALOMY [12]; Alopecurus myosuroides, 504 h, dosage 5 g/ha): 90% | pest or weed control at 20 g/ha (ALOMY [12]; [22]): 100% | pest or weed control at 5 g/ha (PHBPU; Ipomoea purpurea, 504 h, dosage 5 g/ha): 80% | pest or weed control at 20 g/ha (PHBPU; [23]): 90% | pest or weed control at 80 g/ha (ECHCG [14]): 100%

Source: US12655116B2, “Substituted isophthalic acid diamides” (Bayer Aktiengesellschaft, priority 2020, dated 2026)
